One assay has as its system Confused Flour Beetle. The experiment in a line: Field trial (first summer), topical. It is filed as in vivo. The procedure, abridged:
(§1)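 Field trial from the first summer in which 1 µl of test solution holding a set number of micrograms of benzimidazole was applied topically to larvae or adult insects. Mortality at a given route and concentration was scored on a 0–9 scale.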

In assay [1] the test system is Picnic Beetle. In words: Field trial (first summer), topical. To be noted: .078125 μg/μl. It counts as in vivo. The procedure, abridged:
as §1

Assay [2] relates to Alfalfa Weevil Larvae. In words: Field trial, stomach poison test. It counts as in vivo. The method, boiled down:
(§2)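 Insects, five or ten per dish, are fed air-dried leaves that were dipped in or sprayed with the compound at two or three rates. Mortality is rated 0–9 at 24, 48 and 72 h and averaged per concentration.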

Assay [3] deals with Alfalfa Weevil Larvae. In words: Field trial, topical application. It counts as in vivo. Here is the method:
The results are read at 24, 48, and 72 hours when applicable. The rating scale is 0 to 9 where 0 = 0-10 percent and 9 = 91-100 percent mortality.
In a variation of the above test, 1 microliter of a test solution containing a predetermined number of micrograms of benzimidazole was applied directly to larvae or adult insects.
Using the above methods, field trials were carried out against species of 5 orders of insects. The results, which are summarized in the following tables, give the average mortality for the particular insect with a given benzimidazole for each concentration employed. […] These tables contain all results obtained during the summer trials.

For assay [4], the system named is Walnut Caterpillar. In words: Field trial, stomach poison test. It counts as in vivo. The method, boiled down: as §2
The next assay concerns Aphids - Apple. In words: Field trial, stomach poison test. It counts as in vivo. The method, boiled down:
as §2

Another assay concerns Bagworms. In words: Field trial, stomach poison test. It counts as in vivo. The method, boiled down:
as §2

The subject of the next assay is Meadow Spittlebug. In words: Field trial, stomach poison test. It is filed as in vivo. The method, boiled down: as §2
The subject of another assay is Aphids - Tulip Tree. The experiment in a line: Field trial, stomach poison test. It is filed as in vivo. The procedure, abridged:
as §2

Assay [5] has as its system Elm Leaf Beetle. In words: Field trial, stomach poison test. It is filed as in vivo. The procedure, abridged:
as §2

Assay [6] deals with Potato Flea Beetle Adults. The experiment in a line: Field trial, stomach poison test. It counts as in vivo. The procedure, abridged:
as §2

In assay [7] the test system is Red-Legged Grasshopper Adults. The experiment in a line: Field trial, stomach poison test. It counts as in vivo. The procedure, abridged: as §2
The test system of the next assay is Eastern Tent Caterpillar. The experiment in a line: Field trial, contact poison test. It counts as in vivo. The procedure, abridged:
(§3)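 Read-out: mortality rating 0–9 (0 = 0-10 percent, 9 = 91-100 percent) at 24/48/72 h, averaged per concentration. Insects were sprayed on potted-in-water host plants using an atomizer at 10 psi, with dead insects caught on paper below.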

The subject of assay [8] is Walnut Caterpillar. The experiment in a line: Field trial, contact poison test. It is filed as in vivo. The method, boiled down:
as §3

Assay [9] concerns Elm Leaf Beetle. In words: Field trial, contact poison test. It counts as in vivo. The method, boiled down:
as §3

The subject of a further assay is Armyworm, P. Unipuncta. In words: Field trial, contact poison test. It counts as in vivo. The method, boiled down: as §3
The subject of the next assay is Mosquito Larvae. The experiment in a line: Mosquito larvae test (dip test). It counts as in vivo, Aedes aegypti. To be noted: 48 h. Here is the method: Aedes aegypti larvae 5 days old are allowed to feed on fresh food for at least 3 hours previous to being placed on test. Larvae are then removed from the rearing pans by pouring on a 20 mesh screen, washing with deionized water, and pooling in a 6-inch white enameled sauce pan.
Twenty larvae are placed in a 1 oz. paper cup containing 25 ml. of deionized water.
Test chemicals are dissolved in a suitable solvent and pipetted under the surface of 225 ml. of deionized water in one pint wide-mouthed Mason jar test containers and stirred. A cup containing 20 larvae in 25 ml. of water is then added. […]
Results are determined 48 hours later by counting the dead and moribund larvae. […] Moribund larvae are those that are capable of limited, or poorly coordinated, locomotion in a sluggish manner.
Live larvae respond normally and actively.

The next assay concerns Asparagus Beetles Adults. In words: Field trial, stomach poison test. It counts as in vivo. The method, boiled down: as §2
Assay [10] concerns Picnic Beetle. The experiment in a line: Field trial (first summer), stomach. To be noted: 250 ppm. It counts as in vivo. Here is the method: Leaves from the infested plant are treated with different concentrations of the test compounds, either by spraying with a DeVilbiss Special Atomizer (5004) at 10 psi or by dipping the leaves in solutions containing the compound. The leaves are then allowed to air dry.
After the leaves have dryed, they are placed in plastic petri dishes (100 × 25 mm), then the insects are counted out into each dish, five or ten insects per dish depending on the number of insects available. There are one or two replicates and usually two or three rates with each compound. Mortality results are taken at 24, 48 and 72 hours. The rating scale is 0 to 9.
During the previous summer similar field trials were conducted employing the same tests as heretofore but with some additional species of insects not included in the later tests. The results listed below are for tests in which an insect mortality was established by a given application route and at a given concentration in a particular test. The same 0 - 9 scoring system is used as is the designation of compounds by alphabetical symbols.

A further assay deals with Aphids - Sour Gum. In words: Field trial, stomach poison test. It is filed as in vivo. The procedure, abridged:
as §2

The values below come from patent US4122184A, “Benzimidazole insecticides” (priority 1977, dated 1978).

In the case of “mixture of benzyl 2,6-bis(trifluoromethyl)-4-nitro-1-benzimidazolecarboxylate and benzyl 2,5-bis(trifluoromethyl)-7-nitro-1-benzimidazolecarboxylate”, the insect mortality rating with Confused Flour Beetle (.078125 μg/μl) and in the assay on Picnic Beetle [1] was 9 (91-100 percent mortality) in each case. Also, the average mortality rating in the assay on Alfalfa Weevil Larvae [2] (125 ppm) was found to be 3; with Alfalfa Weevil Larvae [2] (250 ppm), 5; in the assay with Alfalfa Weevil Larvae [2] (500 ppm) it was 6; in the assay with Alfalfa Weevil Larvae [3] (0.03 μg/μl) it was 2; in the assay on Alfalfa Weevil Larvae [3] (0.07 μg/μl), 1; in the assay on Alfalfa Weevil Larvae [3] (0.1 μg/μl), 4.
Consider `CC(C)OC(=O)n1c(C(F)(F)F)nc2c([N+](=O)[O-])cc(C(F)(F)F)cc21` [I, isopropyl 2,6-bis(trifluoromethyl)-4-nitro-1-benzimidazolecarboxylate], for which the average mortality rating with Alfalfa Weevil Larvae [2] (125 ppm) was 8; in the assay on Alfalfa Weevil Larvae [2] (250 ppm), 4; with Alfalfa Weevil Larvae [2] (500 ppm), 6; with Walnut Caterpillar [4] (50 ppm), 0 (0-10 percent); in the assay with Walnut Caterpillar [4] (100 ppm) it was 1; with Walnut Caterpillar [4] (250 ppm), 2. Also, the average mortality rating was 1 in the assay with Aphids - Apple (25 ppm); 5 with Aphids - Apple (50 ppm); 9 (91-100 percent mortality) in the assay on Aphids - Apple (100 ppm); 1 in the assay with Bagworms (500 ppm); 0 (0-10 percent) with Bagworms (750 ppm); 1 in the assay on Bagworms (1000 ppm). Besides, the average mortality rating in the assay on Bagworms (1500 ppm) is reported as 0 (0-10 percent); with Bagworms (2500 ppm) it was 1; in the assay with Bagworms (5000 ppm) it was 1; in the assay on Meadow Spittlebug (10 ppm), 2; in the assay with Meadow Spittlebug (25 ppm), 5; in the assay with Meadow Spittlebug (50 ppm), 3. The average mortality rating with Aphids - Tulip Tree (25 ppm) was 5; in the assay with Aphids - Tulip Tree (50 ppm), 5; in the assay with Aphids - Tulip Tree (100 ppm), 5; in the assay on Elm Leaf Beetle [5] (125 ppm), 0 (0-10 percent); in the assay on Elm Leaf Beetle [5] (250 ppm) it was 0 (0-10 percent); in the assay with Elm Leaf Beetle [5] (500 ppm), 3. Moreover, the average mortality rating is given as 6 in assay [6] (10 ppm); 8 in [6] (25 ppm); 8 in [6] (50 ppm); 9 (91-100 percent mortality) in [6] (100 ppm); 0 (0-10 percent) in assay [7] (10 ppm); 4 in assay [7] (25 ppm). Also, the average mortality rating is 4 in assay [7] (50 ppm); 0 (0-10 percent) in the assay on Eastern Tent Caterpillar (50 ppm); 1 with Eastern Tent Caterpillar (100 ppm); 3 in the assay with Eastern Tent Caterpillar (250 ppm); 6 in the assay on Eastern Tent Caterpillar (500 ppm); 5 with Eastern Tent Caterpillar (1000 ppm). In addition, the average mortality rating is given as 0 (0-10 percent) in the assay with Walnut Caterpillar [8] (25 ppm); 1 with Walnut Caterpillar [8] (50 ppm); 2 in the assay with Walnut Caterpillar [8] (100 ppm); 3 in the assay with Walnut Caterpillar [8] (250 ppm); 1 with Elm Leaf Beetle [9] (250 ppm); 1 in the assay with Elm Leaf Beetle [9] (500 ppm). For the same compound, the average mortality rating is on record as 1 in the assay on Elm Leaf Beetle [9] (1000 ppm); 0 (0-10 percent) in the assay on Armyworm, P. Unipuncta (125 ppm); 0 (0-10 percent) with Armyworm, P. Unipuncta (250 ppm); 0 (0-10 percent) in the assay with Armyworm, P. Unipuncta (500 ppm); 1 in the assay with Alfalfa Weevil Larvae [3] (0.03 μg/μl); 1 in the assay with Alfalfa Weevil Larvae [3] (0.07 μg/μl). This compound also came in with an average mortality rating in the assay with Alfalfa Weevil Larvae [3] (0.1 μg/μl) of 3.
Take “mixture of methyl 2,6-bis(trifluoromethyl)-4-nitro-1-benzimidazolecarboxylate and methyl 2,5-bis(trifluoromethyl)-7-nitro-1-benzimidazolecarboxylate”: the average mortality rating in the assay with Mosquito Larvae (0.025 ppm) is 0 (0-10%); with Mosquito Larvae (0.05 ppm), 0 (0-10%); with Mosquito Larvae (0.1 ppm), 4 (45-50%); with Alfalfa Weevil Larvae [2] (125 ppm), 7; in the assay on Alfalfa Weevil Larvae [2] (250 ppm) it was 6; in the assay on Alfalfa Weevil Larvae [2] (500 ppm) it was 3. In addition, the average mortality rating with Asparagus Beetles Adults (5 ppm) is on record as 5; in the assay on Asparagus Beetles Adults (10 ppm), 5; in the assay with Asparagus Beetles Adults (25 ppm), 9 (91-100 percent mortality); in the assay on Meadow Spittlebug (100 ppm) it was 5; with Alfalfa Weevil Larvae [3] (0.03 μg/μl) it was 2; in the assay with Alfalfa Weevil Larvae [3] (0.07 μg/μl), 1. In the assay with Alfalfa Weevil Larvae [3] (0.1 μg/μl), the average mortality rating is recorded as 4. Further, the insect mortality rating with Picnic Beetle [1] and with Picnic Beetle [10] was 9 (91-100 percent mortality) each time.
On to “mixture of N,N-dimethyl-4-nitro-2,6-bis(trifluoromethyl)thio-1-benzimidazolecarboxamide and N,N-dimethyl-7-nitro-2,5-bis(trifluoromethyl)thio-1-benzimidazolecarboxamide [P]”, for which the insect mortality rating in the assay with Picnic Beetle [1] was 9 (91-100 percent mortality).
For `O=[N+]([O-])c1cc(C(F)(F)F)cc2[nH]c(C(F)(F)Cl)nc12` [L, 2-chlorodifluoromethyl-4-nitro-6-trifluoromethylbenzimidazole], the average mortality rating with Aphids - Apple (25 ppm) is 1; in the assay on Aphids - Apple (50 ppm) it was 1; in the assay with Aphids - Apple (100 ppm) it was 4; with Meadow Spittlebug (25 ppm) it was 0 (0-10 percent); in the assay with Meadow Spittlebug (50 ppm) it was 1; in the assay on Meadow Spittlebug (100 ppm), 5. The average mortality rating with Aphids - Sour Gum (25 ppm) is 7; with Aphids - Sour Gum (50 ppm), 7; with Aphids - Sour Gum (100 ppm), 9 (91-100 percent mortality); in the assay with Aphids - Tulip Tree (25 ppm), 1; with Aphids - Tulip Tree (50 ppm), 1; in the assay on Aphids - Tulip Tree (100 ppm), 5.
Turning to “mixture of phenyl 2,6-bis(trifluoromethyl)-4-nitro-1-benzimidazolecarboxylate and phenyl 2,5-bis(trifluoromethyl)-1-benzimidazolecarboxylate”, in the assay with Confused Flour Beetle (.15625 μg/μl), the insect mortality rating was 9 (91-100 percent mortality).
